Measured values taken from ChEMBL document CHEMBL1201862, “PubChem BioAssay data set” (2004).
Activity calls are given as the source filed them.

Columns and labels:
[1] = biological target: T1, Caspase-3 (Homo sapiens, UniProt P42574); format: functional;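 further: Dose-response selectivity test against caspase-3 for candidate inhibitors of sentrin-specific proteases (SENPs)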
T1 sequence (P42574 whole entry): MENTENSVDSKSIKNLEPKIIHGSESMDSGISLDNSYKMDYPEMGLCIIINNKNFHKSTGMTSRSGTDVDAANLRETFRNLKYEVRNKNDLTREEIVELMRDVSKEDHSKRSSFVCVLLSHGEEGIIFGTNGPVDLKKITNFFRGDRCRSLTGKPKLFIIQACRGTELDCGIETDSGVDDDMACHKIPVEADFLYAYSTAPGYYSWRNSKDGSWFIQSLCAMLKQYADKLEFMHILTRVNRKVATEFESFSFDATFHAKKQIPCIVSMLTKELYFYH

[2] = biological target: T2, Sentrin-specific protease 7 (Homo sapiens, UniProt Q9BQF6); format: functional;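 further: Luminescence-based dose-response confirmation of ultra-high-throughput screening hits, measuring inhibition of SENP7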
T2 sequence (Q9BQF6 whole entry): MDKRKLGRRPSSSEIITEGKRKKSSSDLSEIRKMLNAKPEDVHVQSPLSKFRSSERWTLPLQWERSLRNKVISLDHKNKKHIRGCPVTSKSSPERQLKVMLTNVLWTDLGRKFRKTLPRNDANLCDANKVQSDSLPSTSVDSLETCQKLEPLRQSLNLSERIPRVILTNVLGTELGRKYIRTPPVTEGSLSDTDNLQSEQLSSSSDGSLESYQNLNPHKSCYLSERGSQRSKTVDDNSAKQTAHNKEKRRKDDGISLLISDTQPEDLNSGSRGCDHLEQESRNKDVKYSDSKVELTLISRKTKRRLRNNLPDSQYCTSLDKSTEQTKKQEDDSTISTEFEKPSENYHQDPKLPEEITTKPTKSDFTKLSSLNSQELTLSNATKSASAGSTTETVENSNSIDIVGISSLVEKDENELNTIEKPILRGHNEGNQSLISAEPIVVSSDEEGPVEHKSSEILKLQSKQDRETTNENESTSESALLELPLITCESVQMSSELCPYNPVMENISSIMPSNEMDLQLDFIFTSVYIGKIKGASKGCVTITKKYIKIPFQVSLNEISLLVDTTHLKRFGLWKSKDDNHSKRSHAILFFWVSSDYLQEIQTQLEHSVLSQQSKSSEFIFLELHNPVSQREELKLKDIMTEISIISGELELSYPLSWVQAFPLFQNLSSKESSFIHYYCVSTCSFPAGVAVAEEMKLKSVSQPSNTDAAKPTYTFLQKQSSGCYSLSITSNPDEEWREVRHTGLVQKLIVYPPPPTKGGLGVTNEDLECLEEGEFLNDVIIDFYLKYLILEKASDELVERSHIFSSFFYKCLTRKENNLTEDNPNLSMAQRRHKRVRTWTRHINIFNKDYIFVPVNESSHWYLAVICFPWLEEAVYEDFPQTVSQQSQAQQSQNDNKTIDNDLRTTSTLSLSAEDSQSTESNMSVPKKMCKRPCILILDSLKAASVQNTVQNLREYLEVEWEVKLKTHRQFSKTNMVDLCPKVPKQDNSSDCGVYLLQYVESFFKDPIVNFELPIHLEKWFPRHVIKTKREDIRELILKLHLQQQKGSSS

[3] = biological target: T3, Sentrin-specific protease 6 (Homo sapiens, UniProt Q9GZR1); format: functional;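 further: Luminescence-based dose-response confirmatory assay of SENP6 inhibition, following up an ultra-high-throughput screen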
T3 sequence (Q9GZR1 whole entry): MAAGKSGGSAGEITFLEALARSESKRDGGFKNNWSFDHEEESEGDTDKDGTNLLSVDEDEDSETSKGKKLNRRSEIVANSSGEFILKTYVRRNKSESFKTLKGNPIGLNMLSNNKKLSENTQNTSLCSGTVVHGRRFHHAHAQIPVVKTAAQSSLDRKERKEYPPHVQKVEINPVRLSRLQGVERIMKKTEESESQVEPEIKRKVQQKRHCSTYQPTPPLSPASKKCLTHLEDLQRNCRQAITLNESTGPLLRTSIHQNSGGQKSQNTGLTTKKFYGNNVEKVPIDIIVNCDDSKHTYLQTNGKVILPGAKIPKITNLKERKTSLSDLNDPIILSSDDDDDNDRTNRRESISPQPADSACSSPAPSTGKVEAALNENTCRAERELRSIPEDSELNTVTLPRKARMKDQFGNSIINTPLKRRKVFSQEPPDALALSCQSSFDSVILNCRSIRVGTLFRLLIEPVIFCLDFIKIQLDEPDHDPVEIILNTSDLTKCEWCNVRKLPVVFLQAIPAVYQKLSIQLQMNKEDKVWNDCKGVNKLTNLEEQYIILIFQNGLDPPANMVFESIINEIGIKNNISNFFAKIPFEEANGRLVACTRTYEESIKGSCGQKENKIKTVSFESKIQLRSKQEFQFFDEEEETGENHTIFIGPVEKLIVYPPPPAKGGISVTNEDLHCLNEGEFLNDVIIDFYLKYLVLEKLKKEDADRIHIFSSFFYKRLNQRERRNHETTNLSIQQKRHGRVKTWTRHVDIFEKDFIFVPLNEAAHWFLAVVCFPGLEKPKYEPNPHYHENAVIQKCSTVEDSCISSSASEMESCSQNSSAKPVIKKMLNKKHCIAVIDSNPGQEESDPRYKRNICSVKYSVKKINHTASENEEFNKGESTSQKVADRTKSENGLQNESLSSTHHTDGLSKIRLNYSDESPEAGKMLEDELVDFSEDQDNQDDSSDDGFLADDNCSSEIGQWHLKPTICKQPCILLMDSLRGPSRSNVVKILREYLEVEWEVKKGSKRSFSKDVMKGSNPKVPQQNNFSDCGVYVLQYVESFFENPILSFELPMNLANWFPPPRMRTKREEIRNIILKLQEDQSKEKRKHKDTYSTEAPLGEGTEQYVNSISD

[4] = biological target: T4, Sentrin-specific protease 8 (Homo sapiens, UniProt Q96LD8); format: functional;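 further: luminescence read-out of SENP8 inhibition, dose-response confirmation following an ultra-high-throughput screen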
T4 sequence (Q96LD8 whole entry): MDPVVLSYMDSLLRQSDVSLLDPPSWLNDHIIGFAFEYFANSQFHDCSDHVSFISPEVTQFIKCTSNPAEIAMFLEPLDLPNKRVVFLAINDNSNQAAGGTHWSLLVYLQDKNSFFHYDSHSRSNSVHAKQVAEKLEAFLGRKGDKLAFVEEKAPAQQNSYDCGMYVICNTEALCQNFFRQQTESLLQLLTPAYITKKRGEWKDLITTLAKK

[5] = biological target: T5, Microphthalmia-associated transcription factor (Homo sapiens, UniProt O75030); assay: reducers of TRPM1 reporter luminescence, concentration series – cell-based, SK-MEL-5, cherry-picked, set 3, MITF inhibitor project, dose response (AID 493073); format: functional;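 further: SK-MEL-5 melanoma cells with luciferase driven by the MITF target TRPM1 promoter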
T5 sequence (O75030 whole entry): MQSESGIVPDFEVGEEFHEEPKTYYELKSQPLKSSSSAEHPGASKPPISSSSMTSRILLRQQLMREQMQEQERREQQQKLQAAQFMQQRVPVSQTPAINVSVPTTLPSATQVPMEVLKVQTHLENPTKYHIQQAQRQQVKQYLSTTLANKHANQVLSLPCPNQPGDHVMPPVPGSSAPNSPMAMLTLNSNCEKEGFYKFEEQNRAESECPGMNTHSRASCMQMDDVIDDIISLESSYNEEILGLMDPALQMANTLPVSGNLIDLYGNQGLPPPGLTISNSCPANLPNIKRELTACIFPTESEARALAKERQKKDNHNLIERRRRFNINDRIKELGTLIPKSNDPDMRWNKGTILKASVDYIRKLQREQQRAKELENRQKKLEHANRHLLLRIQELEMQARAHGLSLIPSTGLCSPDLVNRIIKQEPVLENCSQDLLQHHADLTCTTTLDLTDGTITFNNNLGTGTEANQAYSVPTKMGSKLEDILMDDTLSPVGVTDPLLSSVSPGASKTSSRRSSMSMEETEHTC

[6] = biological target: Apoptotic protease-activating factor 1 (Homo sapiens, UniProt O14727); format: functional
[7] = biological target: T6, Insulin-degrading enzyme (Homo sapiens, UniProt P14735); assay: recombinant IDE activation, cell-free – biochemical, fluorescence polarization, counter-screen for IDE activator project, dose response (AID 588681)
T6 sequence (P14735 whole entry): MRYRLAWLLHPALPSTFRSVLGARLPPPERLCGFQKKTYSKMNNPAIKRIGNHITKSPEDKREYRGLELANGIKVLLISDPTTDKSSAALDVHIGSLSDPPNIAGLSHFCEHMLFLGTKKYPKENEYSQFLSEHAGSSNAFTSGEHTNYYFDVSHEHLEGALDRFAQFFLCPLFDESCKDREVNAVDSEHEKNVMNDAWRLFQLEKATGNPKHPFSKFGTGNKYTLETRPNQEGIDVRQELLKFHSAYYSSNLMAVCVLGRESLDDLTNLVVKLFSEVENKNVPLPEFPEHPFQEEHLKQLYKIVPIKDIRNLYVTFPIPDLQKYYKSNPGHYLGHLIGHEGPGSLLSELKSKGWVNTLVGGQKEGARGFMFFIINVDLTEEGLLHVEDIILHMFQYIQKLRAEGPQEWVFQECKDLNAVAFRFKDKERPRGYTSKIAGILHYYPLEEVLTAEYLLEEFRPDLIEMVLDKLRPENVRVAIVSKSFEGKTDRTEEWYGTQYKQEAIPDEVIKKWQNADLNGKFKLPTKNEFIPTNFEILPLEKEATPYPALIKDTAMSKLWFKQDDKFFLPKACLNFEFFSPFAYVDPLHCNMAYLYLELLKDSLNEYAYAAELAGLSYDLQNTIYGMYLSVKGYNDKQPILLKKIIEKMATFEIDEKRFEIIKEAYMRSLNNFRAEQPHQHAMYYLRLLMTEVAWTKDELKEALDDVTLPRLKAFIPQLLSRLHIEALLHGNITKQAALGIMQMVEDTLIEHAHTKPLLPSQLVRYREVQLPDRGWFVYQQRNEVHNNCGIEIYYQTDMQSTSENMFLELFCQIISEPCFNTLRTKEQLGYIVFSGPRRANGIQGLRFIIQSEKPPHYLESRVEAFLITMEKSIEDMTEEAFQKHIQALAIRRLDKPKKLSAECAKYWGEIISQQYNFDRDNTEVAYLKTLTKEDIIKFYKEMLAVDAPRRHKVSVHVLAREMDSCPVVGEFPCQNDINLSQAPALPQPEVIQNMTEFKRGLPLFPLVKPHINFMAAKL

[8] = biological target: T6, Insulin-degrading enzyme; assay: cellular IDE activation of Abeta substrate cleavage – fluorescence polarization, HEK cells, dose response (AID 588439); format: functional, cell-based
[9] = tested on: HEK293; assay: membrane integrity loss in HEK cells – cell-based, fluorescence, cytotoxicity control for IDE activator project, dose response (AID 588440); format: functional; details: Homo sapiens;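 further: cytotoxicity by LDH release measuring loss of membrane integrity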
[10] = tested on: HEK293; assay: optical interference in Abeta FP readout, dose response, artefact control for IDE activator project, biochemical, fluorescence polarization (AID 588442); format: functional, cell-based; details: Homo sapiens
[11] = biological target: ALK tyrosine kinase receptor (Homo sapiens, UniProt Q9UM73); format: functional;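 further: ALK tested as one member of a kinase panel screen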
[12] = biological target: T7, Aurora kinase A (Homo sapiens, UniProt O14965); format: functional;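 further: value from the Navigating the Kinome kinase panel profiling, panel entry STK6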
T7 sequence (O14965 whole entry): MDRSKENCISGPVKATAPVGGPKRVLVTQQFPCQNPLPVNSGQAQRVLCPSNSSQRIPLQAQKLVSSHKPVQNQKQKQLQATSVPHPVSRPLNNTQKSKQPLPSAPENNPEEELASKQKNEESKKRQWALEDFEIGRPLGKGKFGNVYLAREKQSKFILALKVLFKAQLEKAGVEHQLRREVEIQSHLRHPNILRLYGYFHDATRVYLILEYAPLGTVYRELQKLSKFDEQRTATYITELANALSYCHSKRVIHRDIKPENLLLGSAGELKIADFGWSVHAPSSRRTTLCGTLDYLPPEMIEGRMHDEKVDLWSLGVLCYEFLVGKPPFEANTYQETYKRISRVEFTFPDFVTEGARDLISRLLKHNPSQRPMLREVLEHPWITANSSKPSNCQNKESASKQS

[13] = biological target: Aurora kinase B (Homo sapiens, UniProt Q96GD4); format: functional
[14] = biological target: G-protein coupled receptor 35 (Homo sapiens, UniProt Q9HC97); assay: inhibition of zaprinast-stimulated GPR35 beta-arrestin translocation – imaging, U2OS, beta-arrestin-GFP, zaprinast agonist, primary screen (AID 2058); format: functional;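 further: antagonist potency meaning inhibition of agonist-induced arrestin redistribution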
[15] = biological target: Beta-lactamase (Pseudomonas aeruginosa, UniProt Q79MP6);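 further: biochemical dose-response test of metallo-beta-lactamase enzyme inhibition, read out by epi-absorbance; purified recombinant IMP-1 metallo-beta-lactamase with nitrocefin as substrate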
[16] = biological target: T8, Calpain-2 catalytic subunit (Sus scrofa, UniProt P43367); assay: m-calpain protease blockers, concentration series – biochemical, fluorogenic peptide substrate, dose response (AID 1420); format: functional
T8 sequence (P43367 whole entry): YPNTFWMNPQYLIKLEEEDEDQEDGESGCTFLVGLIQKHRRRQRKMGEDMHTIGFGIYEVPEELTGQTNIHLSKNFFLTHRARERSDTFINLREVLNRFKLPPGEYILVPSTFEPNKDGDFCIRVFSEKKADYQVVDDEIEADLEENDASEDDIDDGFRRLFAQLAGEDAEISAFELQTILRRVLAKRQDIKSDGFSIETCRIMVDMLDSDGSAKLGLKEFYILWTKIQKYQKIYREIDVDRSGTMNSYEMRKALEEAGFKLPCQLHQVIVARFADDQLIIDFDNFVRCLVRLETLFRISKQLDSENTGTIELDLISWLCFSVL

[17] = biological target: Beta-lactamase (Salmonella choleraesuis (strain SC-B67), UniProt Q5J463)
[18] = mitochondrial function rescue without frataxin homolog – Friedreich's ataxia, plus single-dose screen, dose response (AID 1465); format: functional;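 further: yeast depleted of Yfh1p frataxin homolog grown on glycerol needing respiration; WST-1 tetrazolium dye reduction as measure of cellular dehydrogenase metabolic activity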

Sequence of Aurora kinase B (Q96GD4 whole entry): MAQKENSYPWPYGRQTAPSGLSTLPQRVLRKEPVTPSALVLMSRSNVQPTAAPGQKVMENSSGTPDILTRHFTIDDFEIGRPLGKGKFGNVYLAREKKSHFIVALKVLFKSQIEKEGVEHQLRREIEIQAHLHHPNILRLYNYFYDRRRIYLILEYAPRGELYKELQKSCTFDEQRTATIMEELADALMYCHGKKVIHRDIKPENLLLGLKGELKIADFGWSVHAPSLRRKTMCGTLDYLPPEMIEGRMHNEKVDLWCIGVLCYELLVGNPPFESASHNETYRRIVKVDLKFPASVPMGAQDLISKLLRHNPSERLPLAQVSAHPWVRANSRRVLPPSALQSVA
Sequence of Beta-lactamase (Salmonella choleraesuis (strain SC-B67), UniProt Q5J463) (Q5J463 whole entry): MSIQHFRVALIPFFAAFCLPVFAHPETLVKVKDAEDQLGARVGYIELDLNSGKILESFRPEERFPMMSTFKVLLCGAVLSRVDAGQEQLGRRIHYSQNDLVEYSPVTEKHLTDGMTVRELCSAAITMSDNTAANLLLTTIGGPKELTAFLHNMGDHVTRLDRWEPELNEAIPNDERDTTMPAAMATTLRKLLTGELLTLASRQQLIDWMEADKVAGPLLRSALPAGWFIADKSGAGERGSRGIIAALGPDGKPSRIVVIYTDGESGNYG
Sequence of Beta-lactamase (Pseudomonas aeruginosa, UniProt Q79MP6) (Q79MP6 whole entry): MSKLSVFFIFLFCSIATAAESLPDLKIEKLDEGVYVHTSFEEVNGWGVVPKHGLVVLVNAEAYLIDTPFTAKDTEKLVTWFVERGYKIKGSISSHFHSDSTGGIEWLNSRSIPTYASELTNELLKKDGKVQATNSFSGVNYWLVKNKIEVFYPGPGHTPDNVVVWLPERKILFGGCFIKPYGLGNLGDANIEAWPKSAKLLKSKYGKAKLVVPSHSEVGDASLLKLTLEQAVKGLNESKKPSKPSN
Sequence of Apoptotic protease-activating factor 1 (O14727 whole entry): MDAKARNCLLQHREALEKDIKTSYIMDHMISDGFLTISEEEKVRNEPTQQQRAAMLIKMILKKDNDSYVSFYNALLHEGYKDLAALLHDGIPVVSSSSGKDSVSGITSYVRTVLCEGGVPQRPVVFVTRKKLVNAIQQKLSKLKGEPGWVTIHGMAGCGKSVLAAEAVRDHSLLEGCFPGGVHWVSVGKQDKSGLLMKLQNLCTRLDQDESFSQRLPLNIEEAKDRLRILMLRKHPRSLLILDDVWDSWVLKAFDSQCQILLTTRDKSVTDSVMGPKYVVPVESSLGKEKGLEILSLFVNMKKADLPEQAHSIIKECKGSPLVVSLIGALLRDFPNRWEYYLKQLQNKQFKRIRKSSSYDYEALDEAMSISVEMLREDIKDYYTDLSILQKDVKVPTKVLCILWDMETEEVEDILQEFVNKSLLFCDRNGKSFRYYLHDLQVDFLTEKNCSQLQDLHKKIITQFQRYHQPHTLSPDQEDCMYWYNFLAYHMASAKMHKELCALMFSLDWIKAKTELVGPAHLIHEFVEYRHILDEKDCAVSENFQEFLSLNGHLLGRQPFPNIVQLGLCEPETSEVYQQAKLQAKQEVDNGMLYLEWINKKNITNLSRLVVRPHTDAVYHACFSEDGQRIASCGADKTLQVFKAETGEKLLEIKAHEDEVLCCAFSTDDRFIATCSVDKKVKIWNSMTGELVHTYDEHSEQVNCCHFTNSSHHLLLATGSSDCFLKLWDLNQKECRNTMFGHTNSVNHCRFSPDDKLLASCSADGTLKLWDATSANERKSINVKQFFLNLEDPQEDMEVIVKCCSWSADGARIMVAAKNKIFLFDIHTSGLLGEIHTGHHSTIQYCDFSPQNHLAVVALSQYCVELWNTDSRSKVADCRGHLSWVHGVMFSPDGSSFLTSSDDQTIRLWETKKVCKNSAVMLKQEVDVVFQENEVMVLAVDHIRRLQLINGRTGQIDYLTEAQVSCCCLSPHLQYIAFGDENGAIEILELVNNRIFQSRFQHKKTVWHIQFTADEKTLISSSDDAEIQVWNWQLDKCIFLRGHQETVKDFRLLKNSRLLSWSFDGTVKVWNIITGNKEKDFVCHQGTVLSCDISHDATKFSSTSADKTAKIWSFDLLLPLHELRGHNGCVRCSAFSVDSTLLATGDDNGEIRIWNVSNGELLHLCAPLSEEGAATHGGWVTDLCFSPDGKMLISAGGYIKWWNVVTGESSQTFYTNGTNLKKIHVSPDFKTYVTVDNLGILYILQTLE
Sequence of ALK tyrosine kinase receptor (Q9UM73 whole entry): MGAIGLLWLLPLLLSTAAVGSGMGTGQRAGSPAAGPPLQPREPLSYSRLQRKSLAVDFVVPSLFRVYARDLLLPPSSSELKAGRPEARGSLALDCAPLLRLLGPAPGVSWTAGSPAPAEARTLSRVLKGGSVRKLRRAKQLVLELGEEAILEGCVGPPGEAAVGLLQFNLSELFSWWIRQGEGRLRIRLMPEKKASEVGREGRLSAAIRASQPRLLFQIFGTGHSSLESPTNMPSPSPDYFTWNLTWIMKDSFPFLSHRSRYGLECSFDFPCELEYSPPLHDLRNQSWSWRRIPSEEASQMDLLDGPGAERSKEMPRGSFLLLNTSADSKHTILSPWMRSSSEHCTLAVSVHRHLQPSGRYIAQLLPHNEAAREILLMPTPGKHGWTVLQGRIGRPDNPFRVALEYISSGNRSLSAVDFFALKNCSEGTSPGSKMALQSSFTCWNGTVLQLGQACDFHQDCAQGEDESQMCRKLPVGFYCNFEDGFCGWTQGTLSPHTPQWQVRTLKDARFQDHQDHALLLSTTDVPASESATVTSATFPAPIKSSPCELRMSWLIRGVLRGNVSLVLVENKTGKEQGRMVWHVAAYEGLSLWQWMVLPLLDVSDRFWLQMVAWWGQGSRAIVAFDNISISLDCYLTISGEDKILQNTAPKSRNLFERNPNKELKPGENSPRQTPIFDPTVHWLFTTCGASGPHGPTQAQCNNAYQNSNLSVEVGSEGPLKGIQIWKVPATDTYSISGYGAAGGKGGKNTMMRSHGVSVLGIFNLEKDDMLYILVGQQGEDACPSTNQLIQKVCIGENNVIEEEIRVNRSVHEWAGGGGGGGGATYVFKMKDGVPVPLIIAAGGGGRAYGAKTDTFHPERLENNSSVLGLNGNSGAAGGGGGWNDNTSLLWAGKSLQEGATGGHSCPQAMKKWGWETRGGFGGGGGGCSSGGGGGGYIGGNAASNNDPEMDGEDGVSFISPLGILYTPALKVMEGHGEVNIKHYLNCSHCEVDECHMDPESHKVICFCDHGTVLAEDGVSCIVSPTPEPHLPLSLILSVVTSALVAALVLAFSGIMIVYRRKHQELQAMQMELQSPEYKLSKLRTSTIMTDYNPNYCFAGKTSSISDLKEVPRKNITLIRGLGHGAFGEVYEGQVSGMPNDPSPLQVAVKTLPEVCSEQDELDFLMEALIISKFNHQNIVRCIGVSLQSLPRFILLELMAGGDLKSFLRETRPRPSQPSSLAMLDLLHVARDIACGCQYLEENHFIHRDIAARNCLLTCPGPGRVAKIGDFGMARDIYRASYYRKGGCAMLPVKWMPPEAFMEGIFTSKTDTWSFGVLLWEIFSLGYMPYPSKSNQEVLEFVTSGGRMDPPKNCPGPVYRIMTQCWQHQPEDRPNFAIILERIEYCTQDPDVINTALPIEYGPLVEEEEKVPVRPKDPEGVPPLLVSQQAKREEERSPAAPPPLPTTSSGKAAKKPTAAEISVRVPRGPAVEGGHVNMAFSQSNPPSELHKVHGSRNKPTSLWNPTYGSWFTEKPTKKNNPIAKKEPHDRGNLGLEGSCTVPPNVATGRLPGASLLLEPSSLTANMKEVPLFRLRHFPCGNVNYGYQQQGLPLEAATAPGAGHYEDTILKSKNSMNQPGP
Sequence of G-protein coupled receptor 35 (Q9HC97 whole entry): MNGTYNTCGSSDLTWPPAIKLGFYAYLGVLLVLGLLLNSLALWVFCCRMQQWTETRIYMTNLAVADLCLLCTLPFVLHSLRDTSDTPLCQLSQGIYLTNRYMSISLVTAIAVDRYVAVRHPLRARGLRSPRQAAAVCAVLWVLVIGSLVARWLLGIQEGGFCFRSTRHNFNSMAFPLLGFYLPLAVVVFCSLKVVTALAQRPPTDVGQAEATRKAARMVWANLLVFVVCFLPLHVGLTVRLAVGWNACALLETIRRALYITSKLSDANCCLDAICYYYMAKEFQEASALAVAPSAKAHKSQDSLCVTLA

In the case of `CC(=O)NC1=C(N(C)C2CCS(=O)(=O)C2)C(=O)c2ccccc2C1=O` (configuration not stated), the IC50 [1] is reported as 17 µM (active), the IC50 [2] is reported as 13 µM (active) and the IC50 [3] is reported as 5.25 µM (active). For the same compound, the IC50 [4] was 13.4 µM (active), the AC50 [5] was 21.2 µM (active) and the IC50 [6] was 22 µM (active).
In the case of `CC(=O)N1CCc2cc(S(=O)(=O)NCCC(=O)N3CCN(Cc4ccccc4)CC3)ccc21`, the EC50 [7] is reported as > 54.7 µM (inactive), the EC50 [8] is reported as > 54.7 µM (inactive) and the IC50 [9] is reported as > 89.2 µM (inactive). For the same compound, the EC50 [10] was > 54.7 µM (inactive).
For `NC1CCN(C(=O)c2ccc3c(c2)[nH]c(=O)c2cccn23)CC1`, the Ki [11] was > 3.16 µM (inactive), the Ki [12] was > 2 µM (inactive) and the Ki [13] was 0.158 µM (active).
With `CCN1CCN(C2=CC3=CC(=C(C#N)C#N)CCC3CC2)CC1` (configuration not stated) the IC50 [14] was 1.67 µM (active), the IC50 [15] was 4.22 µM (active) and the IC50 [16] was 30.6 µM (not active). For the same compound, the IC50 [17] was 3.08 µM (active), the EC50 [18] was > 100 µM (active) and the EC50 [7] was > 54.7 µM (inactive). For the same compound, the EC50 [8] was > 54.7 µM (inactive), the IC50 [9] was > 89.2 µM (inactive) and the EC50 [10] was > 54.7 µM (inactive).
